# According to patent US8318947B2, “Comestible compositions comprising high potency savory flavorants, and processes for producing them” (Senomyx, Inc., priority 2006, dated 2012):
# Tests used:
# [1] = tested on: human panelists, savory taste; experiment: Savory taste test with trained human panel (difference from reference); format: in vivo
# Experimental: General Panelist Selection: Basic screening of sensory taste testers: Potential panelists were tested for their abilities to rank and rate intensities of solutions representing the five basic tastes. Panelists ranked and rated intensity of five different concentrations of each of the five following compounds: sucrose (sweet), sodium chloride (salty), citric acid (sour), caffeine (bitter), and monosodium glutamate (savory). In order to be selected for participation in testing, panelists needed to correctly rank and rate samples for intensity, with a reasonable number of errors.
# Preliminary Taste Tests: The panelists selected in the above procedure were deemed qualified for performing Preliminary Taste Testing procedures. The preliminary taste tests are used to evaluate new compounds for intensity of basic tastes and off-tastes. A small group of panelists (n=5) taste approximately 5 concentrations of the compound (range typically between 1-100 μM, in half-log cycles, e.g., 1, 3, 10, 30, and 100 μM) in water and in a solution of 12 mM MSG to evaluate enhancement. Panelists rate the five basic tastes (sweet, salty, sour, bitter, and savory) as well as off-tastes (such as chemical, metallic, sulfur) on a labeled magnitude scale. Samples are served in 10 mL portions at room temperature. The purpose of the test is to determine the highest concentration at which there is no objectionable off-taste, and determine if obvious savory taste or enhancement of savory taste exists at any of the concentrations tested.
# Trained Panelist Selection: A trained expert panel was used to further evaluate compounds that had been tested with the preliminary taste test.
# Panelists for the trained panel were selected from the larger group of qualifying taste panelists. Panelists were further trained on savory taste by ranking and rating experiments using MSG and IMP combinations. Panelists completed a series of ranking, rating, and difference from reference tests with savory solutions. In ranking and rating experiments, panelists evaluated easy MSG concentrations (0, 6, 18, 36 mM) and more difficult MSG concentrations (3, 6, 12, 18 mM MSG) in water.
# Compound testing with Trained Panel: Compounds tested by the trained panel were evaluated in difference from reference experiments. […] Test samples were solutions with varying amounts of MSG, IMP, and the compound. Typically, each session compares the reference sample to numerous test samples. […] Compounds were tested against the reference in samples with and without 12 mM MSG. All samples were presented in 10 ml volumes at room temperature. Two sessions were completed for each compound tested to evaluate panel reproducibility.
# [2] = tested on: human subjects, savory taste; experiment: Human taste test of low sodium tomato juice; format: in vivo; details: 3 μM cpd; 400 mg Na/8 oz tomato juice
# Experimental: Human taste tests were conducted in order to evaluate the ability of the compounds of the invention to enhance the savory flavor of low sodium tomato juice (which naturally comprises some monosodium glutamate).
# The final tomato juice samples for taste testing were prepared so as to comprise 90% (by volume) pre-made low sodium tomato juice stock (pH 4.2, 80˜100 mg Na/8 oz, 16 mM of naturally occurring MSG), 5% (by volume) of stock solutions formulated to produce selected final levels of sodium of final juice, and 5% (by volume) of a stock solution of the compound of the invention. Selected oxalamide compounds of the invention were dissolved in LSB (low sodium phosphate buffer), to provide a stock solution at 20 times the desired final concentration in the final tomato juice. The desired final sodium concentration of the final tomato juice was most experiments 73.6 mM (400 mg sodium in 8 oz. of juice), therefore a stock solution of NaCl was made at 1.48 M NaCl. The pH for the stock solutions was adjusted to 4.2 using a 1 M citric acid solution, and the stock solutions were sonicated to ensure the additive compounds were completely dissolved. […]
# Scores were averaged across panelists and sessions, and evaluated using a 2-way ANOVA (factors: panelists and samples) and Duncan's multiple comparison test (alpha=0.05) to determine significant differences in intensity ratings.
structure (smiles),measurement,setting,value
"COc1cc(C)ccc1CNC(=O)C(=O)NCCc1ccc(C)cn1 [Example 30, N^1-(2-methoxy-4-methylbenzyl)-N^2-(2-(5-methylpyridin-2-yl)ethyl)oxalamide]",Taste Data: cpd concentration as strong as 12 mM MSG,"[1]; compound alone, without MSG",0.3 μM cpd as strong as
same,Taste Data: cpd concentration at which 12 mM MSG + cpd is as strong as 12 mM MSG + 100 μM IMP,"[1]; with 12 mM MSG, reference 12 mM MSG + 100 μM IMP",12 mM MSG + 0.3 μM cpd as
same,Enhancement of the savory taste of 16 mM glutamate (naturally existing) in low sodium tomato juice,[2],by 1.8 to 1.9-fold
same,melting point,,133.5 to 134 °C
